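Method: 48-hour compound exposure of cells in 96-well plates, five concentrations, linear interpolation of endpoints. GI50 = concentration required for 50% inhibition of growth.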 The source made the active and inactive calls. Cut-off read from the data, not from the text of the source: active = GI50 up to about 1.1 µM and inactive = higher.
How the values were obtained:
Experiment in all cases: NCI-60 cell line screen, 48 h
SK-MEL-5 = system: SK-MEL-5
SF-539 = system: SF-539
HCT-116 = system: HCT-116
SNB-19 = system: SNB-19
MDA-N = system: MDA-N
SF-268 = system: SF-268
K562 = system: K562
SK-OV-3 = system: SK-OV-3
SW-620 = system: SW-620
U-251 = system: U-251
HL-60 = system: HL-60
Hs-578T = system: Hs-578T
TK-10 = system: TK-10
CAKI-1 = system: CAKI-1
SR = system: SR
ACHN = system: ACHN
MOLT-4 = system: MOLT-4
LOX IMVI = system: LOX IMVI
OVCAR-3 = system: OVCAR-3

Compound | GI50 (SK-MEL-5) | GI50 (SF-539) | GI50 (HCT-116) | GI50 (SNB-19) | GI50 (MDA-N) | GI50 (SF-268) | GI50 (K562) | GI50 (SK-OV-3) | GI50 (SW-620) | GI50 (U-251) | GI50 (HL-60) | GI50 (Hs-578T) | GI50 (TK-10) | GI50 (CAKI-1) | GI50 (SR) | GI50 (ACHN) | GI50 (MOLT-4) | GI50 (LOX IMVI) | GI50 (OVCAR-3)
CCCC(CCC(N)=O)(CCC(N)=O)[N+](=O)[O-] | > 100 µM (inactive) | > 100 µM (inactive) | > 100 µM (inactive) | > 100 µM (inactive) | > 100 µM (inactive) | > 100 µM (inactive) | > 100 µM (inactive) | > 100 µM (inactive) | > 100 µM (inactive) | > 100 µM (inactive) | > 100 µM (inactive) | > 100 µM (inactive) | > 100 µM (inactive) | > 100 µM (inactive) | > 100 µM (inactive) | > 100 µM (inactive) | > 100 µM (inactive) |  | 
CNC(=O)N1CCN(C(=O)NC)CCN(C(=O)NC)CC1 | > 100 µM (inactive) |  | > 100 µM (inactive) | > 100 µM (inactive) | > 100 µM (inactive) | > 100 µM (inactive) | > 100 µM (inactive) | > 100 µM (inactive) | > 100 µM (inactive) | > 100 µM (inactive) | > 100 µM (inactive) | > 100 µM (inactive) | > 100 µM (inactive) |  | > 100 µM (inactive) | > 100 µM (inactive) | > 100 µM (inactive) | > 100 µM (inactive) | 
O=C(O)CCCCn1cnc2c(S)ncnc21 | > 100 µM (inactive) | > 100 µM (inactive) | > 100 µM (inactive) | > 100 µM (inactive) | > 100 µM (inactive) | > 100 µM (inactive) | > 100 µM (inactive) | > 100 µM (inactive) | > 100 µM (inactive) | > 100 µM (inactive) |  | > 100 µM (inactive) | > 100 µM (inactive) | > 100 µM (inactive) | > 100 µM (inactive) | > 100 µM (inactive) | > 100 µM (inactive) | > 100 µM (inactive) | > 100 µM (inactive)
Cc1nc(-c2cc3ccccc3oc2=O)cs1 | > 100 µM (inactive) | 70 µM (inactive) | 96.2 µM (inactive) | 40.6 µM (inactive) | > 100 µM (inactive) | 42.9 µM (inactive) | > 100 µM (inactive) | > 100 µM (inactive) | > 100 µM (inactive) | 32 µM (inactive) | > 100 µM (inactive) | 18.4 µM (inactive) | 37.4 µM (inactive) | > 100 µM (inactive) | 59 µM (inactive) | 52.5 µM (inactive) | > 100 µM (inactive) | > 100 µM (inactive) | 
CC(=O)O[C@H]1C(=O)[C@@]2(C)[C@H]([C@H](OC(=O)c3ccccc3)[C@]3(O)C[C@H](OC(=O)[C@H](O)[C@@H](NC(=O)CC(C)C)c4ccccc4)C(C)=C1C3(C)C)[C@]1(OC(C)=O)CO[C@@H]1C[C@@H]2O | 0.00251 µM (active) | 0.00204 µM (active) | 0.00167 µM (active) | 0.607 µM (active) | 0.0906 µM (active) | 0.00486 µM (active) | 0.00179 µM (active) | 0.00433 µM (active) | 0.00289 µM (active) | 0.00879 µM (active) | 0.00111 µM (active) | 0.0018 µM (active) | 0.0383 µM (active) | 0.378 µM (active) | 0.00171 µM (active) | 0.157 µM (active) | 0.00149 µM (active) | 0.00619 µM (active) | 
O=C1OC(C2OC(=O)c3cc(O)c(O)c(O)c3-c3c(O)c(O)c4oc(=O)c5c(c(O)c(O)c6oc(=O)c3c4c65)-c3c(cc(O)c(O)c3O)C(=O)OCC2O)C2OC(=O)c3c(c(O)c(O)c(O)c3[C@H]2O)-c2c1cc(O)c(O)c2O (stereo not given in full) | 13.9 µM (inactive) |  | 17.3 µM (inactive) | 96.8 µM (inactive) | 21.2 µM (inactive) | 24.7 µM (inactive) | 19.2 µM (inactive) | 59.7 µM (inactive) | 19 µM (inactive) | 20.9 µM (inactive) | 13.7 µM (inactive) | 38.6 µM (inactive) |  | 10.3 µM (inactive) | 15 µM (inactive) | 24.7 µM (inactive) | 22.6 µM (inactive) | 11.5 µM (inactive) | 24.4 µM (inactive)
CCC(=O)O[C@H]1CC[C@H]2[C@@H]3CCC4=C/C(=N/OC(=O)c5cccc6c(=O)c7ccccc7[nH]c56)CC[C@]4(C)[C@H]3CC[C@]12C | 22.8 µM (inactive) | 20.6 µM (inactive) |  | 51.4 µM (inactive) | 35 µM (inactive) | 38.5 µM (inactive) | 18 µM (inactive) | > 100 µM (inactive) | 32 µM (inactive) | 25.6 µM (inactive) |  | 22.4 µM (inactive) | 54.6 µM (inactive) |  | 29.8 µM (inactive) | 47.9 µM (inactive) | 17.9 µM (inactive) | 23.3 µM (inactive) | 18.3 µM (inactive)
CC(=O)C(C)(C)CCC(C)(C)C(C)=O | > 100 µM (inactive) | > 100 µM (inactive) | > 100 µM (inactive) | > 100 µM (inactive) | > 100 µM (inactive) | > 100 µM (inactive) | > 100 µM (inactive) | > 100 µM (inactive) | > 100 µM (inactive) | > 100 µM (inactive) | > 100 µM (inactive) | > 100 µM (inactive) | > 100 µM (inactive) | > 100 µM (inactive) | > 100 µM (inactive) | > 100 µM (inactive) | > 100 µM (inactive) | > 100 µM (inactive) | 
Nc1cccc(OCc2nc(N)nc(N)c2-c2ccc(Cl)cc2)c1 | 26.9 µM (inactive) |  | 44.7 µM (inactive) | > 100 µM (inactive) | 42.1 µM (inactive) | 60 µM (inactive) | 23.9 µM (inactive) | 89.1 µM (inactive) | 50.6 µM (inactive) | 64.9 µM (inactive) | 23.8 µM (inactive) | 62.2 µM (inactive) | 31.5 µM (inactive) | 46.7 µM (inactive) | 36.7 µM (inactive) | 44.3 µM (inactive) | 26.1 µM (inactive) | 52.5 µM (inactive) | > 100 µM (inactive)
COc1cc(C2CC(C)(N3CCCC3)Oc3cc4c(cc32)OCO4)cc(OC)c1OC (stereo not given) | 0.124 µM (active) | 0.215 µM (active) | 0.299 µM (active) | 0.277 µM (active) | 0.0275 µM (active) | 0.745 µM (active) | 0.0371 µM (active) |  | 0.167 µM (active) | 0.279 µM (active) | 0.13 µM (active) | 0.259 µM (active) |  | 0.527 µM (active) | 0.488 µM (active) | 0.69 µM (active) | 0.21 µM (active) | 0.426 µM (active) | 0.129 µM (active)
CSc1nc(=O)cnn1C | > 100 µM (inactive) |  | > 100 µM (inactive) | > 100 µM (inactive) | > 100 µM (inactive) | > 100 µM (inactive) | > 100 µM (inactive) | > 100 µM (inactive) | > 100 µM (inactive) | > 100 µM (inactive) |  | > 100 µM (inactive) | > 100 µM (inactive) | > 100 µM (inactive) | > 100 µM (inactive) | > 100 µM (inactive) | > 100 µM (inactive) |  | > 100 µM (inactive)
Oc1c([Si](c2ccccc2)(c2ccccc2)c2ccccc2)cc2ccccc2c1-c1c(O)c([Si](c2ccccc2)(c2ccccc2)c2ccccc2)cc2ccccc12 | > 100 µM (inactive) | > 100 µM (inactive) |  | > 100 µM (inactive) | > 100 µM (inactive) | > 100 µM (inactive) | 34.1 µM (inactive) | > 100 µM (inactive) | > 100 µM (inactive) | > 100 µM (inactive) | > 100 µM (inactive) | > 100 µM (inactive) | > 100 µM (inactive) | > 100 µM (inactive) | > 100 µM (inactive) | > 100 µM (inactive) | 42.2 µM (inactive) | > 100 µM (inactive) | 
O=C1N/C(=N/N=C/c2c[nH]c3ccccc23)N/C1=C\c1c[nH]c2ccccc12 | 19.6 µM (inactive) | 22.1 µM (inactive) | 19.1 µM (inactive) | 69.7 µM (inactive) | 27.6 µM (inactive) | 20.4 µM (inactive) | 14.7 µM (inactive) | 35.9 µM (inactive) | 18.2 µM (inactive) | 17.3 µM (inactive) | 18.9 µM (inactive) | 18.7 µM (inactive) | 94.2 µM (inactive) | 31 µM (inactive) |  | 21.3 µM (inactive) | 10.5 µM (inactive) | 17.4 µM (inactive) | 14.7 µM (inactive)
C[C@]12CCC3=NCCN3C1=CC[C@@H]1[C@@H]2CC[C@@]2(C)[C@H]1CC[C@]2(C)O | 17.6 µM (inactive) | 22.2 µM (inactive) | 31 µM (inactive) | > 100 µM (inactive) | 61.9 µM (inactive) | 76.7 µM (inactive) | 34.7 µM (inactive) | > 100 µM (inactive) | 85.1 µM (inactive) | 87.3 µM (inactive) |  | 30.5 µM (inactive) | 41.1 µM (inactive) | > 100 µM (inactive) | 38.8 µM (inactive) | > 100 µM (inactive) | 35.3 µM (inactive) | 32.2 µM (inactive) | > 100 µM (inactive)
COc1cc(C2c3cc4c(cc3OC(NNS(=O)(=O)c3ccc(C)cc3)C2C)OCO4)cc(OC)c1O (stereo not given) | 9.75 µM (inactive) | 6.53 µM (inactive) | 9.44 µM (inactive) | 16.2 µM (inactive) | 5.21 µM (inactive) | 14.8 µM (inactive) | 4.61 µM (inactive) | 11.3 µM (inactive) | 24.3 µM (inactive) | 8.17 µM (inactive) | 9.33 µM (inactive) | 16.9 µM (inactive) | 5.41 µM (inactive) | 12.8 µM (inactive) |  | 7.98 µM (inactive) | 2.52 µM (inactive) | 12 µM (inactive) | 13.7 µM (inactive)

Source: ChEMBL document CHEMBL1201862, “PubChem BioAssay data set” (2004)
